Data published in US5929037A, “Modified α-D-Glc.rho.-(1-2)-α-D-Glc.rho.-(1-3)-α-D-Glc.rho.-ana logues” (Alberta Research Council, priority 1995, dated 1999).

Columns and labels:
glucosidase I = molecular target: T1, glucosidase I (Bos taurus, UniProt A0A3Q1M9D9); test: Assay for glucosidase I activity (14C-Glc3Man9GlcNAc2 substrate, ConA-Sepharose, scintillation counting); format: biochemical; settings: affinity purified glucosidase I from calf pancreas microsomes; for inhibition at 1000 µM: at 1 mM concentration, read-out: inhibition of glycosidase I activity
T1 construct: Glucosidase I was solubilized from calf pancreas microsomes; from tissue
T1 sequence (A0A3Q1M9D9 1-839): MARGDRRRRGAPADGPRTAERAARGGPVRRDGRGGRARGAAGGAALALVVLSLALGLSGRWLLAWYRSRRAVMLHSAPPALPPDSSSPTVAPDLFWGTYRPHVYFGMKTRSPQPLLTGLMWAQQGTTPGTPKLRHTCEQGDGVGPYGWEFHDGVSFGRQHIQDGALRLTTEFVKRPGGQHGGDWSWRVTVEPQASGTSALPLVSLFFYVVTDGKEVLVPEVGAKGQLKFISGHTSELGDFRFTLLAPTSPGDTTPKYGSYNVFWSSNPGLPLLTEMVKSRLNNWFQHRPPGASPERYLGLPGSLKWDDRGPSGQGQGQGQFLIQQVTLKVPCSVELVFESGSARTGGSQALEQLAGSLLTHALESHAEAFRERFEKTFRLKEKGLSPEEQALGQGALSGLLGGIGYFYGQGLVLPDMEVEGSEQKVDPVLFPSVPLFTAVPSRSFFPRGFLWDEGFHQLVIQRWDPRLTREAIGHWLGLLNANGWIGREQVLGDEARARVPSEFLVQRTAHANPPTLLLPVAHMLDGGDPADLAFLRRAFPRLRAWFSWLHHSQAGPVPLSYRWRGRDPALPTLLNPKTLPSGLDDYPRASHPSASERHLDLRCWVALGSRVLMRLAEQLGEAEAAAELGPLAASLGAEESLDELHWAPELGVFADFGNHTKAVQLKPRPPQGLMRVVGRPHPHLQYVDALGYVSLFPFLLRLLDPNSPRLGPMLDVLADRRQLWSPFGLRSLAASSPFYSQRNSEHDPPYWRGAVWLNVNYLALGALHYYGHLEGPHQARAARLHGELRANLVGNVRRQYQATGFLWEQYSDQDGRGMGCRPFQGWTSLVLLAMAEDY
Experimental: Some of the compounds which are modified analogues of the trisaccharides corresponding to the end tail of precursor oligosaccharides Glc3 Man9 GlcNAc2 -PP-Dol, were evaluated as inhibitors of glucosidase I activity. Glucosidase I was purified by a literature procedure as follows. To prepare an affinity matrix, carboxypentyl-deoxynojirimycin was coupled with Affigel 102 according to Shailubhai et al^19. Glucosidase I was solubilized from calf pancreas microsomes, and purified from glucosidase II activity by affinity chromatography according to the same authors.
^14 C-labelled Glc3 Man9 GlcNAc2 -PP-Dol was prepared by the incubation of UDP-[^14 C]Glc with calf pancreas microsomes as described by Herscovien et al^40. Glc3 Man9 GlcNAc2 was released by mild acid hydrolysis and purified by BioGel P4 chromatography.
Affinity purified glucosidase I was assayed as described by Saunier et al.^41 by adsorption of undigested substrate and oligosaccharide product to ConA-Sepharose and scintillation counting of [^14 C]Glc in the column eluent. Oligosaccharides as potential inhibitors were evaluated using castanospermine as a baseline inhibitor.

glucosidase = settings: cited from earlier work

SMILES	inhibition at 1000 µM (glucosidase I)	further results
COC(=O)CCCCCCCCO[C@H]1O[C@H](CO)[C@@H](O)[C@H](O[C@H]2O[C@H](CO)[C@@H](O)[C@H](O)[C@H]2O[C@H]2O[C@H](CO)[C@@H](O)[C@H](O)[C@H]2O)[C@H]1O [Compound 40, 8-methoxycarbonyloctyl 3-O-[2-O-(α-D-glucopyranosyl)-α-D-glucopyranosyl]-α-D-glucopyranoside]	100%	–
COC(=O)CCCCCCCCO[C@H]1O[C@H](CO)[C@@H](O)[C@H](O[C@H]2O[C@H](CO)[C@@H](O)[C@H](O)[C@H]2O[C@H]2O[C@H](CO)[C@@H](O)C[C@H]2O)[C@H]1O [Compound 45, 8-methoxycarbonyloctyl 3-O-[2-O-(3-deoxy-α-D-glucopyranosyl)-α-D-glucopyranosyl]-α-D-glucopyranoside]	50%	–
COC(=O)CCCCCCCCO[C@H]1O[C@H](CO)[C@@H](O)[C@H](O[C@H]2O[C@H](CO)[C@@H](O)[C@H](O)[C@H]2O[C@H]2O[C@H](C)[C@@H](O)[C@H](O)[C@H]2O)[C@H]1O [Compound 49, 8-Methoxycarbonyl 3-O-[2-O-(6deoxy-α-D-glucopyranosyl)-α-D-glucopyranosyl]-α-D-glucopyranoside]	–	glucosidase I inhibitory activity (result in words) (glucosidase I): completely eliminated
OC[C@H]1NC[C@H](O)[C@@H](O)[C@@H]1O [deoxynojirimycin]	–	concentration required to induce the inhibitory effect in vitro (glucosidase): at least 1 mmol/l
